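Test compounds were applied to cells in 96-well plates for 48 hours at 5 doses. At the GI50, growth is halved.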 Calls of active or inactive are those of the source. Cut-off read from the data, not from the text of the source: active = GI50 up to about 1.1 µM and inactive = higher.
Columns and labels:
Assay in all cases: NCI-60 cell line screen, 48 h
SNB-78 = tested on: SNB-78
DLD-1 = tested on: DLD-1
RXF 631 = tested on: RXF 631
LXFL 529 = tested on: LXFL 529
KM-20L2 = tested on: KM-20L2
XF498 = tested on: XF498
DMS-114 = tested on: DMS-114
DMS-273 = tested on: DMS-273
HOP-18 = tested on: HOP-18

Measured: GI50

C1=Cc2nc1c(-c1ccncc1)c1ccc([n-]1)c(-c1ccncc1)c1nc(c(-c3ccncc3)c3ccc([n-]3)c2-c2ccncc2)C=C1.[Zn+2]
inactive: SNB-78 > 100 µM | DLD-1 > 100 µM | RXF 631 > 100 µM | LXFL 529 > 100 µM | KM-20L2 > 100 µM | XF498 > 100 µM | DMS-114 > 100 µM

COc1cc(-c2cc(=O)c3cc(C)c(C)c(C(=O)O)c3o2)cc(OC)c1OC
inactive: SNB-78 > 100 µM | DLD-1 > 100 µM | RXF 631 > 100 µM | LXFL 529 > 100 µM | KM-20L2 > 100 µM | DMS-273 > 100 µM | XF498 > 100 µM | DMS-114 > 100 µM

O=C(COc1ccccc1Cl)N1N=C(c2ccc(Cl)cc2)CC1(O)c1ccccc1 (centres undefined)
inactive: SNB-78 > 100 µM | DLD-1 > 100 µM | RXF 631 > 100 µM | LXFL 529 > 100 µM | KM-20L2 > 100 µM | DMS-273 > 100 µM | XF498 > 100 µM

Cc1ccc(S(=O)(=O)n2c(-c3ccccc3)c(-c3ccccc3)c3ccccc32)cc1
inactive: DLD-1 > 100 µM | HOP-18 > 100 µM | LXFL 529 > 100 µM | KM-20L2 > 100 µM | DMS-273 > 100 µM | XF498 > 100 µM | DMS-114 20.5 µM

CC(=O)OCC12CC(CC1OC(C)=O)c1ccccc12 (centres undefined)
inactive: HOP-18 > 100 µM | RXF 631 > 100 µM | LXFL 529 > 100 µM | KM-20L2 > 100 µM | DMS-273 > 100 µM | DMS-114 > 100 µM

Cc1ccc(NCC(=O)N2CC(=O)Nc3ccccc32)c(C)c1
inactive: SNB-78 > 100 µM | DLD-1 > 100 µM | HOP-18 > 100 µM | LXFL 529 > 100 µM | KM-20L2 > 100 µM | DMS-273 > 100 µM | XF498 > 100 µM

S=c1sc2c(Cl)ncnc2n1-c1ccccc1
inactive: SNB-78 10.5 µM | DLD-1 11.5 µM | HOP-18 19 µM | LXFL 529 12.4 µM | KM-20L2 19.1 µM | DMS-273 1.51 µM | XF498 15.2 µM | DMS-114 13.6 µM

COc1cc(/C=C2\NC(=S)C3Cc4c(OC)c(C)c(OC)c(OC)c4C2N3C)c(OC)c(C)c1OC (centres undefined)
inactive: DLD-1 51.1 µM | HOP-18 27.8 µM | LXFL 529 28.8 µM | KM-20L2 64 µM | DMS-273 46.9 µM | DMS-114 27.5 µM

COc1ccccc1/C=N/C12CC3CC(CC(C3)C1)C2
inactive: KM-20L2 > 100 µM | DMS-273 > 100 µM | DMS-114 > 10 µM

CCCC(=O)c1c(NOC2OC(COC(C)=O)C(OC(C)=O)C(OC(C)=O)C2OC(C)=O)nc(OC)n(C)c1=O (centres undefined)
inactive: SNB-78 > 100 µM | DLD-1 > 100 µM | LXFL 529 > 100 µM | KM-20L2 > 100 µM | DMS-273 > 100 µM | XF498 > 100 µM | DMS-114 > 100 µM

COC(=O)C(CCCCCCCC(C(=O)OC)C1=Nc2nnc(N)n2C1=O)C1=Nc2nnc(N)n2C1=O (centres undefined)
inactive: SNB-78 > 100 µM | DLD-1 > 100 µM | HOP-18 > 100 µM | RXF 631 > 100 µM | LXFL 529 > 100 µM | KM-20L2 > 100 µM | DMS-273 > 100 µM | XF498 > 100 µM | DMS-114 > 100 µM

COc1ccc(C(=O)O/N=C2/CCCCC2CN(C)C)cc1 (centres undefined)
inactive: SNB-78 > 100 µM | DLD-1 > 100 µM | HOP-18 > 100 µM | RXF 631 > 100 µM | LXFL 529 > 100 µM | KM-20L2 > 100 µM | DMS-273 > 100 µM

CSC1CC2C(CC1(C)SC)C2(C)C (centres undefined)
inactive: SNB-78 74.3 µM | DLD-1 58.1 µM | LXFL 529 > 100 µM | DMS-273 45.4 µM | XF498 19.7 µM

Cc1cc2c(c(C#N)c1C)NC(=O)CCC2=O
inactive: SNB-78 > 100 µM | DLD-1 > 100 µM | RXF 631 > 100 µM | LXFL 529 > 100 µM | KM-20L2 > 100 µM | DMS-273 > 100 µM | XF498 > 100 µM | DMS-114 > 100 µM

COc1cc2c(cc1OC)[C@H]1C(COC(=O)c3ccccc3)CS/C(=N/c3ccccc3)N1CC2 (some centres undefined)
inactive: SNB-78 27 µM | DLD-1 > 100 µM | HOP-18 > 100 µM | LXFL 529 24.4 µM | KM-20L2 76 µM | DMS-273 74 µM | XF498 > 100 µM | DMS-114 17.1 µM

COc1cc2c(Cc3cc(OCc4ccccc4)ccc3N)nccc2c(OC)c1OC
inactive: SNB-78 > 10 µM | DLD-1 > 10 µM | HOP-18 > 10 µM | RXF 631 6.55 µM | LXFL 529 > 10 µM | KM-20L2 > 10 µM | DMS-273 > 10 µM | XF498 > 10 µM | DMS-114 > 10 µM

CCCCN(CC)CC(C(C)=O)c1c(O)c2ccccc2oc1=O (centres undefined)
inactive: SNB-78 > 100 µM | DLD-1 > 100 µM | HOP-18 > 100 µM | LXFL 529 > 100 µM | KM-20L2 > 100 µM | DMS-273 > 100 µM | XF498 > 100 µM | DMS-114 > 100 µM

Cc1ccc(S(=O)(=O)OCC23CCC(C4CC42)C2CC23)cc1 (centres undefined)
inactive: DLD-1 > 100 µM | HOP-18 > 100 µM | RXF 631 > 100 µM | LXFL 529 65 µM | KM-20L2 > 100 µM | DMS-273 68.2 µM | DMS-114 37.5 µM

COc1ccc(-c2cc(-c3ccco3)c(C#N)c(=O)n2C2OC(OC(=O)c3ccccc3)C(OC(=O)c3ccccc3)C2OC(=O)c2ccccc2)cc1 (centres undefined)
inactive: SNB-78 > 100 µM | DLD-1 > 100 µM | HOP-18 > 100 µM | RXF 631 > 100 µM | LXFL 529 > 100 µM | KM-20L2 > 100 µM | DMS-273 63.4 µM | DMS-114 > 100 µM

CCOC(=O)C(C(=O)c1ccccc1-c1ccccc1C(=O)O)=P(c1ccccc1)(c1ccccc1)c1ccccc1
inactive: RXF 631 37.8 µM | LXFL 529 24.9 µM | KM-20L2 21 µM | DMS-273 31.8 µM | XF498 23.3 µM | DMS-114 20.1 µM

C[C@@H]1C[C@@H]2C(=O)N(c3ccccc3)C(=O)[C@@H]2c2[nH]c3ccc(Br)cc3c21
inactive: SNB-78 25.1 µM | DLD-1 44.2 µM | HOP-18 24.1 µM | RXF 631 28.8 µM | LXFL 529 37.6 µM | KM-20L2 > 100 µM | DMS-273 > 100 µM | XF498 26.1 µM | DMS-114 53 µM

NC(=O)/C(=N\NC(=O)C[n+]1ccccc1)C1NC(=O)NC1=O (centres undefined)
inactive: SNB-78 > 100 µM | DLD-1 > 100 µM | HOP-18 > 100 µM | RXF 631 > 100 µM | LXFL 529 > 100 µM | KM-20L2 > 100 µM | DMS-273 > 100 µM | XF498 > 100 µM | DMS-114 > 100 µM

C[C@]12CCC3[C@@H](CC[C@@H]4c5nonc5CC[C@]34C)C1CC[C@@H]2O (some centres undefined)
inactive: SNB-78 38.6 µM | DLD-1 26.3 µM | HOP-18 36.4 µM | RXF 631 33.1 µM | LXFL 529 37 µM | KM-20L2 43.7 µM | DMS-273 23.9 µM | XF498 20.3 µM | DMS-114 29.2 µM

C=CC1(C(=O)O)CCC(C(C)(C)C)CC1 (centres undefined)
inactive: SNB-78 > 100 µM | DLD-1 > 100 µM | HOP-18 > 100 µM | RXF 631 > 100 µM | LXFL 529 > 100 µM | KM-20L2 > 100 µM | DMS-273 > 100 µM | XF498 > 100 µM | DMS-114 > 100 µM

C[C@@H]1CC[C@@]2(C)OC(c3ccccc3)[C@H](CO)N2C1=O (some centres undefined)
inactive: SNB-78 > 100 µM | DLD-1 > 100 µM | HOP-18 > 100 µM | KM-20L2 > 100 µM | DMS-273 > 100 µM | XF498 > 100 µM | DMS-114 > 100 µM

Reference: ChEMBL document CHEMBL1201862, “PubChem BioAssay data set” (2004)
